Test results taken from patent US12281122B1, “PI3K inhibitors” (Cogent Biosciences, Inc., priority 2023, dated 2025).

Columns and labels:
[1] = test system: SKBR3 (PI3Kα-Wild Type) cell line; assay: HTRF phospho-AKT(S473) cell assay in SKBR3 cells; format: cell-based, human; conditions: Homo sapiens, SK-BR-3; HTRF phospho-AKT(S473), SKBR3 (PI3Kα-Wild Type) cells, 2 hours compound incubation, PDGF-BB stimulated
Procedure, shortened: (§1)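 T47D (PI3Kα-H1047R; RPMI, 10% FBS, insulin) and SKBR3 (wild-type PI3Kα; McCoy's 5A, 10% FBS) cells treated 2 h at 37 °C with 12-point 1:3 dilutions, top 5 μM and 10 μM respectively, ≤0.5% DMSO. SKBR3 stimulated with 70 ng/ml PDGF-BB for the last 15 min; lysate pAKT(S473) by HTRF, IC50 from curves.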

[2] = test system: T47D (PI3Kα-H1047R) cell line; assay: HTRF phospho-AKT(S473) cell assay in T47D cells; format: cell-based, human; conditions: Homo sapiens; HTRF phospho-AKT(S473), T47D (PI3Kα-H1047R) cells, 2 hours compound incubation
Procedure, shortened: as §1

Row | Structure (SMILES) | IC50 [1] | IC50 [2]
1 | Cc1ccn([C@H]2[C@@H]3CN(c4nc5c([C@@H](C)Nc6ccc(Cl)nc6C(=O)NS(C)(=O)=O)cc(C)cc5c(=O)n4C)C[C@@H]32)c(=O)c1 [Compound 754, 6-chloro-3-(((R)-1-(3,6-dimethyl-2-((1R,5S,6S)-6-(4-methyl-2-oxopyridin-1(2H)-yl)-3-azabicyclo[3.1.0]hexan-3-yl)-4-oxo-3,4-dihydroquinazolin-8-yl)ethyl)amino)-N-(methylsulfonyl) picolinamide] | ≥ 5000 nM | < 250 nM
2 | Cc1cc([C@@H](C)Nc2ccc(Cl)nc2C(=O)NS(C)(=O)=O)c2nc(N3C[C@@H]4[C@H](C3)[C@H]4n3ccccc3=O)n(C)c(=O)c2c1 [Compound 755, 6-chloro-3-(((R)-1-(3,6-dimethyl-4-oxo-2-((1R,5S,6S)-6-(2-oxopyridin-1(2H)-yl)-3-azabicyclo[3.1.0]hexan-3-yl)-3,4-dihydroquinazolin-8-yl)ethyl)amino)-N-(methylsulfonyl) picolinamide] | 1000 to 5000 nM | 250 to 500 nM
3 | Cc1cc([C@@H](C)Nc2ccc(Cl)nc2C(=O)NS(=O)(=O)c2ccc(N(C)C)nc2)c2nc(N3Cc4ccc(F)cc4C3)n(C)c(=O)c2c1 [Compound 757, (R)-6-chloro-N-((6-(dimethylamino)pyridin-3-yl)sulfonyl)-3-((1-(2-(5-fluoroisoindolin-2-yl)-3,6-dimethyl-4-oxo-3,4-dihydroquinazolin-8-yl)ethyl)amino) picolinamide] | ≥ 5000 nM | 250 to 500 nM
4 | CCn1cc(F)c(C2CCN(c3nc4c([C@@H](C)Nc5ccc(Cl)nc5C(=O)NS(C)(=O)=O)cc(C)cc4c(=O)n3C)CC2)n1 [Compound 758, (R)-6-chloro-3-((1-(2-(4-(1-ethyl-4-fluoro-1H-pyrazol-3-yl)piperidin-1-yl)-3,6-dimethyl-4-oxo-3,4-dihydroquinazolin-8-yl)ethyl)amino)-N-(methylsulfonyl) picolinamide] | ≥ 5000 nM | 250 to 500 nM

Now from value to compound:

Row | IC50 [1] | IC50 [2] | Structure (SMILES)
5 | 1000 to 5000 nM | 250 to 500 nM | Cc1cc([C@@H](C)Nc2ccc(Cl)nc2C(=O)NS(C)(=O)=O)c2nc(N3CCC(c4nn(C5COC5)cc4F)CC3)n(C)c(=O)c2c1 [Compound 759, (R)-6-chloro-3-((1-(2-(4-(4-fluoro-1-(oxetan-3-yl)-1H-pyrazol-3-yl)piperidin-1-yl)-3,6-dimethyl-4-oxo-3,4-dihydroquinazolin-8-yl)ethyl)amino)-N-(methylsulfonyl) picolinamide]
6 | 1000 to 5000 nM | 250 to 500 nM | Cc1cc([C@@H](C)Nc2ccc(Cl)nc2C(=O)NS(C)(=O)=O)c2nc(N3C[C@@H]4C(c5ccnc(C)c5F)[C@@H]4C3)n(C)c(=O)c2c1 (stereo partly drawn) [Compound 763, 6-chloro-3-(((1R)-1-(2-((1R,5S)-6-(3-fluoro-2-methylpyridin-4-yl)-3-azabicyclo[3.1.0]hexan-3-yl)-3,6-dimethyl-4-oxo-3,4-dihydroquinazolin-8-yl)ethyl)amino)-N-(methylsulfonyl) picolinamide]
7 | 1000 to 5000 nM | 250 to 500 nM | Cc1cc([C@@H](C)Nc2ccc(Cl)nc2C(=O)NS(C)(=O)=O)c2nc(N3CCn4nccc4C3)n(C)c(=O)c2c1 [Compound 765, (R)-6-chloro-3-((1-(2-(6,7-dihydropyrazolo[1,5-a]pyrazin-5(4H)-yl)-3,6-dimethyl-4-oxo-3,4-dihydroquinazolin-8-yl)ethyl)amino)-N-(methylsulfonyl) picolinamide]
8 | ≥ 5000 nM | 250 to 500 nM | Cc1cc([C@@H](C)Nc2ccc(Cl)nc2C(=O)NS(C)(=O)=O)c2nc(N3C[C@H]4C[C@@H]3C[C@H]4c3nn(C)cc3F)n(C)c(=O)c2c1 [Compound 766, 6-chloro-3-(((R)-1-(2-((1R,4S,5R)-5-(4-fluoro-1-methyl-1H-pyrazol-3-yl)-2-azabicyclo[2.2.1]heptan-2-yl)-3,6-dimethyl-4-oxo-3,4-dihydroquinazolin-8-yl)ethyl)amino)-N-(methylsulfonyl) picolinamide]
